Reference: patent US5952510A, “1,3-dihydro-1-(phenylalkenyl)-2H-imidazol-2-one derivatives having PDE IV and cytokine inhibiting activity” (Janssen Pharmaceutica, N.V., priority 1995, dated 1999)

Key:
[1] = test system: Dextran-induced oedema formation in mouse ear; test: Dextran-induced oedema formation in mouse ear; assay type: in vivo, Male Swiss mice; details: 5 mg/kg, oral, one hour before intravenous dextran T500 + pontamine sky-blue dye; compared with background extravasation
Method: Dextran-induced oedema formation in mouse ear.
Systemic injection of dextran T500 in normal, non-sensitized mice elicits increased vascular permeability, leading to extravasation and oedema of the extremities. When dextran is injected together with a blue dye, blueing of the ears is the most prominent feature of oedematous response.
Male Swiss mice weighing 24-26 g were orally pretreated with the test compound dissolved in PEG-200 at different concentrations or solvent. One hour later, the mice were given an intravenous injection with an isotonic saline solution containing 12 mg/ml dextran T500 and 2.6 mg/ml pontamine sky-blue dye, in a volume of 0.1 ml per 10 g body weight. One hour and forty-five minutes later, the animals are sacrificed by ether and their ears removed. Extraction and quantification of the extravasated dye is done as described by Van Wauwe and Goossens (Drug Dev. Res. 1986, 8, 213-218).
The extravasation of the dye is characterized by the blueing value which is defined as the concentration of the extracted dye in both ears. The background blueing value was determined once as the mean blueing value obtained by injecting a group of mice with a saline solution containing only dextran T500 and the blue dye. Table 1 lists the percentage inhibition of the extravasation of the dye when compared with the background extravasation of the dye when the test compound was administered at a dose of 5 mg/kg.

[2] = target: T1, recombinant human MNL phosphodiesterase type IV B (Homo sapiens, UniProt Q07343); test: Inhibition of recombinant human mononuclear lymphocyte (MNL) phosphodiesterase type IV B produced in insect cells with a baculovirus vector; assay type: biochemical; details: 0.8 μM 3H-cAMP, pH 8, 37° C., 10 min; calculated graphically
T1 construct: made in house; host or cells: insect cells infected with recombinant baculovirus
Method: Inhibition of recombinant human mononuclear lymphocyte (MNL) phosphodiesterase type IV B produced in insect cells with a baculovirus vector, The alleviating and/or curing effect of the instant compounds on allergic and atopic diseases was assessed by an in vitro assay system to detect an inhibiting effect on the recombinant human MNL phosphodiesterase type IV B.
Seventy-two hours after infection with recombinant baculovirus, the insect cells were harvested and pelleted at 500 g for 5 minutes. The cells were lysed in 10 ml lysis-buffer consisting of 20 mM Tris, 10 mM EGTA, 2 mM Na2 EDTA, 1% Triton-X-100, 1 mM Na3 VO4, 10 mM NaF, 2 μg/ml of leupeptine, pepstatine and aprotinine, 0.3 μg/ml benzamidine and 100 μg/ml TPCK pH 7.5. After 5 minutes on ice, solubilized cells were centrifuged at 4000 rpm for 15 minutes at 4° C. The resulting supernatant was filtered through a 0.45 μm filter (Millipore) and brought to TBS buffer (50 mM Tris, 150 mM NaCl pH 7.4).
The supernatant containing phosphodiesterase (PDE) type IV B, was subsequently loaded onto a 5 ml anti-FLAG-M2 affinity gel column, previously activated with 5 ml 100 mM glycine pH 3.5 and equilibrated with 20 ml 50 mM Tris, 150 mM NaCl pH 7.4. After washing the column with equilibration buffer, PDE IV was eluted in 1.5 ml fractions containing 37.5 μl 1M Tris pH 8. The fractions were dialyzed overnight against 20 mM Tris, 2 mM Na2 EDTA and 400 mM NaCl pH 7.5 and tested for PDE IV activity. Indentification was done on SDS PAGE and Western Blot (anti-FLAG-M2). Active fractions were pooled, brought to 10% glycerol and stored at -70° C.
The incubation mixture (pH 8) (200 μl) contained 20 mM Tris, 10 mM magnesium sulphate, 0.8 μM ^3 H-cAMP (310 mCi/mmole) and the phosphodiesterase type IV, the amount depending on the enzymatic activity. […]
The inhibiting effect of the present compounds on recombinant human MNL phosphodiesterase PDE IV B was measured at different concentrations of the instant compounds. The IC50 values (expressed in M) were calculated graphically from the thus obtained inhibition values.

T1 sequence (Q07343 whole entry): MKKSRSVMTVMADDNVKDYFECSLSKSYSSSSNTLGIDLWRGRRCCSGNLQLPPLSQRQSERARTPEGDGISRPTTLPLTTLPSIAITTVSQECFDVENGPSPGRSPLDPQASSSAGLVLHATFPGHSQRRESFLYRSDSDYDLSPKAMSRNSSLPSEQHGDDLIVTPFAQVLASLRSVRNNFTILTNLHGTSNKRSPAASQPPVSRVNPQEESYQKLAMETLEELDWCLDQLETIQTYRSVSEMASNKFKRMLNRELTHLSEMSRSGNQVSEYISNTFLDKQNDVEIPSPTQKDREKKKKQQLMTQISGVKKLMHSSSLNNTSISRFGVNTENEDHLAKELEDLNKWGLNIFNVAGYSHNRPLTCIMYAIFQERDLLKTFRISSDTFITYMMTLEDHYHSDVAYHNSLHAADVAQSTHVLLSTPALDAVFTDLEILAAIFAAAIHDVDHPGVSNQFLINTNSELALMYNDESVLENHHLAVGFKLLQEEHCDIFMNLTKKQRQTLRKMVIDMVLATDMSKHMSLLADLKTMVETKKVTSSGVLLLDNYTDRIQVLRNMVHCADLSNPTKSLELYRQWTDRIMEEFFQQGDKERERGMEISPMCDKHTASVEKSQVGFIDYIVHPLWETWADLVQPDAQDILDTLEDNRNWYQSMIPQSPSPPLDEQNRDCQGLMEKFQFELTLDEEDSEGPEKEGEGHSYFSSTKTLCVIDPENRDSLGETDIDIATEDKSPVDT

| Structure (SMILES) | % inhibition of the extravasation of the dye [1] [%] | IC50 [2] [nM] |
| --- | --- | --- |
| CCOC(=O)C/C(=C\n1cc[nH]c1=O)c1ccc(OC)c(OC2CCCC2)c1 [Compound 4, ethyl (E)-3-(cyclopentyloxy)-β-[(2,3dihydro-2-oxo-1H-imidazol-1-yl)methylene]-4methoxybenzene-propanoate] | 25.9 | < 1000 |
| COc1ccc(/C(=C\n2ccn(C(c3ccccc3)c3ccccc3)c2=O)c2ccccc2)cc1OC1CCCC1 [Compound 11, (Z)-1-[2-[3-(cyclopentyloxy)-4-methoxyphenyl]-2-phenylethenyl]-3-(diphenylmethyl)-1,3-dihydro-2H-imidazol-2-one] | 19.3 | – |
| COc1ccc(C(=CN2CCNC2=O)c2ccccc2)cc1OC [Compound 8, 1-[2-(3,4-dimethoxyphenyl)-2-phenylethenyl]-2-imidazolidinone] | 17.9 | – |
| COc1ccc(/C(=C/n2ccn(C(c3ccccc3)c3ccccc3)c2=O)c2ccccc2)cc1OC1CCCC1 [Compound 10, (E)-1-[2-[3-(cyclopentyloxy)-4-methoxyphenyl]-2-phenylethenyl]-3-(diphenylmethyl)-1,3dihydro-2H-imidazol-2-one] | 40.1 | – |
| COc1ccc(/C(=C\n2cc[nH]c2=O)CC(=O)O)cc1OC1CCCC1 [Compound 7, (Z)-3-(cyclopentyloxy)-β-[(2,3-dihydro-2-oxo-1H-imidazol-1-yl)methylene]4-methoxybenzenepropanoic acid] | 49.9 | – |
| COc1ccc(/C(C)=C\n2ccn(C(c3ccccc3)c3ccccc3)c2=O)cc1OC1CCCC1 [Compound 12, (Z)-1-[2-[3-(cyclopentyloxy)-4-methoxyphenyl]-1-propenyl]-3-(diphenylmethyl)-2H-imidazol-2-one] | – | < 1000 |
| COc1ccc(/C(=C/n2cc[nH]c2=O)c2ccccc2)cc1OC1CCCC1 [Compound 2, (E)-1-[2-[3-(cyclopentyloxy)-4-methoxyphenyl]-2-phenylethenyl]-1,3-dihydro-2H-imidazol-2-one] | 15.5 | < 1000 |
| COc1ccc(C(=CN2CCN(C(C)=O)C2=O)c2ccccc2)cc1OC [Compound 9, 1-acetyl-3-[2-(3,4dimethoxyphenyl)-2-phenylethenyl]-2-imidazolidinone] | 11.1 | – |
